Results from patent EP0820452B1, “CARBONYL-PIPERAZINYL AND PIPERIDINIL COMPOUNDS WHICH INHIBIT FARNESYL PROTEIN TRANSFERASE” (SCHERING CORPORATION, priority 1995, dated 1996).

Biological target: FTase (Homo sapiens, UniProt P49354+P49356)
Test: in vitro assay measuring the inhibition of FTase (FPT IC50), methods of WO95/10516
Format: biochemical
Details: concentration of compound which inhibits 50% of FPT transferase
Excerpt: Measurements of pharmacological activity of the present compounds can be made based upon a […] (i.e. FPT lC50), cell mat assay (GGPT lC50) or in vitro tumor activity (Cos Cell lC50) as described by the methods in W095/10516.
FPT lC50 values refer to concentration, in micromoles (µM), of compound which inhibits 50% of FPT transferase

Sequence of FTase (P49356 whole entry, one chain of several): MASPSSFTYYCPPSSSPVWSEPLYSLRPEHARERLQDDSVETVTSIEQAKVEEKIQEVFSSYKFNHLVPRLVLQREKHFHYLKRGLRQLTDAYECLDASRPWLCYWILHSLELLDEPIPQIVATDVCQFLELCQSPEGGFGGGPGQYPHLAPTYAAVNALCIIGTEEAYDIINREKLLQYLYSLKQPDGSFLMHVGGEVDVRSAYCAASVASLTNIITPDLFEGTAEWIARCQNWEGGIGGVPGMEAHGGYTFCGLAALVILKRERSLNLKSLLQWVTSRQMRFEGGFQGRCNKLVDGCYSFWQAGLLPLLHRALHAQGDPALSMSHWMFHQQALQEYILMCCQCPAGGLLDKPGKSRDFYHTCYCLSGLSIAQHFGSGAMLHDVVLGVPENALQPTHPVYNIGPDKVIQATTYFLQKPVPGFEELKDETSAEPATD

CC(C)NC(=O)CC1CN(C(=O)c2ccc3ccccc3c2)CCN1C(=O)Cc1ccncc1 (stereo not shown)
IC50: > 50 µM
